No end group written: not given here.
Columns and labels:
CGRP receptors = details: double alanine mutant R^11AR^18A; cited from earlier work
From the text: The loop conformations spanned a large proportion of the space available to ECL2 (figure 4a). […] ECL2 forms an extended loop; this conformation is often seen as two antiparallel beta-strands in all peptide GPCRs for which structures are available, creating a large interface for peptide–receptor contacts. Here, we re-interpret seve ...

[1] = system: CLR A273L/RAMP1 (CGRP receptor); assay: AM-stimulated cAMP (alphascreen), A273L mutant; assay type: cell-based, human; details: residue A273 (mutated to leucine); effect of mutation on AM
From the text: (§1) Curve fitting was done with […]
(§2) To explore the effects of the above mutants further, their ability to respond to AM through cAMP production was subsequently investigated. […] There was especially good agreement between the two agonists for the central area of functional importance ranging from D280 to T288. […] The effect of mutations at the N- and C-termini of ECL2 was more variable between the two peptides.

[2] = system: CLR R274A/RAMP1 (CGRP receptor); assay: AM-stimulated cAMP (alphascreen), R274A mutant; assay type: cell-based, human
From the text: as §1, §2

[3] = system: CLR D280A/RAMP1 (CGRP receptor); assay: AM-stimulated cAMP (alphascreen), D280A mutant; assay type: cell-based, human
From the text: as §1, §2

[4] = system: CLR W283A/RAMP1 (CGRP receptor); assay: AM-stimulated cAMP (alphascreen), W283A mutant; assay type: cell-based, human
From the text: as §1, §2

[5] = system: CLR I284A/RAMP1 (CGRP receptor); assay: AM-stimulated cAMP (alphascreen), I284A mutant; assay type: cell-based, human; details: residue I284; effect of alanine mutation on AM
From the text: as §1, §2

[6] = system: CLR S285A/RAMP1 (CGRP receptor); assay: AM-stimulated cAMP (alphascreen), S285A mutant; assay type: cell-based, human; details: residue S285; effect of alanine mutation on AM
From the text: as §1, §2

[7] = system: CLR T288A/RAMP1 (CGRP receptor); assay: AM-stimulated cAMP (alphascreen), T288A mutant; assay type: cell-based, human; details: residue T288; effect of alanine mutation on AM
From the text: as §1, §2

[8] = system: CLR Y277A/RAMP1 (CGRP receptor); assay: AM-stimulated cAMP (alphascreen), Y277A mutant; assay type: cell-based, human; details: Cos 7 cells
From the text: as §1, §2

[9] = system: CLR Y278A/RAMP1 (CGRP receptor); assay: AM-stimulated cAMP (alphascreen), Y278A mutant; assay type: cell-based, human; details: Cos 7 cells
From the text: as §1, §2

[10] = system: CLR L290A/RAMP1 (CGRP receptor); assay: AM-stimulated cAMP (alphascreen), L290A mutant; assay type: cell-based, human; details: Cos 7 cells
From the text: as §1, §2

[11] = system: CLR L291A/RAMP1 (CGRP receptor); assay: AM-stimulated cAMP (alphascreen), L291A mutant; assay type: cell-based, human; details: Cos 7 cells
From the text: as §1, §2

[12] = system: CLR ECL2 mutants with human RAMP1; assay: AM-stimulated cAMP (alphascreen), ECL2 alanine scan; assay type: cell-based; details: some mutants (not given); Cos 7 cells
From the text: as §1, §2

CGRP receptor = details: AM at the CGRP receptor versus CGRP; cited from earlier work

| AM effect [1] | AM effect ([2]; residue R274, effect of alanine mutation on AM) | AM effect ([3]; residue D280, effect of alanine mutation on AM) | AM effect ([4]; residue W283, effect of alanine mutation on AM) | AM effect [5] | AM effect [6] | AM effect [7] | reduction in maximal cAMP response [8] | reduction in maximal cAMP response [9] | potency versus WT [10] | potency versus WT [11] | Substance | reduction in affinity (CGRP receptors) [fold] | cAMP response / Emax ([2]; R274A, Cos 7 cells) | cAMP response / Emax ([3]; D280A, Cos 7 cells) | cAMP response / Emax ([4]; W283A, Cos 7 cells) | effect on pEC50 [8] | effect on pEC50 [9] | activation of the receptor [12] | affinity, folds less than that for CGRP (CGRP receptor) |
| --- | --- | --- | --- | --- | --- | --- | --- | --- | --- | --- | --- | --- | --- | --- | --- | --- | --- | --- | --- |
| – | – | – | – | – | – | – | – | – | – | – | R^11AR^18A: double alanine mutant of CGRP, literature (ACDTATCVTHALAGLLSASGGVVKNNFVPTNVGSKAF; not fully specified; ends and bridges not checked; UniProt P06881 83-119, looked up, variant R11A R18A) | 100 | – | – | – | – | – | – | – |
| √ | √ | √ | √ | √ | √ | √ | approximately 25% | approximately 25% | not significantly affected | not significantly affected | adrenomedullin [AM] | – | so low that an Emax could not be reliably determined | so low that an Emax could not be reliably determined | so low that an Emax could not be reliably determined | did not show AM-mediated effects on pEC50 | did not show AM-mediated effects on pEC50 | impossible to measure any activation of the receptor | approximately 10 folds |

Reference: paper PMC3785825 (Journal of the Royal Society Interface, 2013)
